Our source for the IC50 and CC50 values is patent US20240382494A1, “THERAPEUTIC COMPOUNDS” (priority 2023, published 2024).

Where two headings read alike, the source gives them in different places. Some results are limits rather than exact numbers.

The target in one data set is SARS-CoV-2 PLpro (Severe acute respiratory syndrome coronavirus 2, UniProt P0DTD1). Briefly: FRET-based PLpro enzymatic assay. Type of data set: biochemical. As for the experimental part: The SARS-CoV-2 PL^pro enzymatic assays were carried out as follows. The assay was assembled in 96-well plates with 100 μl of 200 nM PL^Pro protein in PL^Pro reaction buffer [50 mM Hepes (pH 7.5), 0.01% Triton X-100, and 5 mM DTT]. Then, 1 μl of testing compound at various concentrations was added to each well and incubated at 30° C. for 30 minutes. The enzymatic reaction was initiated by adding 1 μl of 1 mM FRET substrate (the final substrate concentration is 10 μM). The reaction was monitored in a Cytation 5 image reader with filters for excitation at 360/40 nm and emission at 460/40 nm at 30° C. for 1 hour. The initial velocity of the enzymatic reaction with and without testing compounds was calculated by linear regression for the first 15 minutes of the kinetic progress curve. The IC50 values were calculated by plotting the initial velocity against various concentrations of testing compounds with a dose-response function in Prism 8 software.

Data set [1] is described as follows: Cytotoxicity assay in Vero E6 cells (neutral red uptake). Type of data set: cell-based. The settings on record: African green monkey. On the procedure:
Briefly, 80.000 cells/ml of the tested cell lines were dispensed into 96-well cell culture plates at 100 μl per well Twenty-four hours later, the growth medium was removed and washed with 150 μl of PBS buffer. Two hundred microliters of fresh serum-free medium containing serial diluted compounds was added to each well. After incubating for 2 days at 37° C., the medium was removed and replaced with 100 μl of DMEM medium containing neutral red (40 μg/ml) and incubated for 2 to 4 hours at 37° C. The amount of neutral red taken up was determined by measuring the absorbance at 540 nm using a Multiskan FC Microplate Photometer (Thermo Fisher Scientific) The CC50 values were calculated from best-fit dose-response curves with variable slope in Prism 8.

Where [2] appears, read: 200 nM PLpro, 10 μM FRET substrate, 30 min preincubation at 30° C., read-out: IC50.
Where [3] appears, read: Vero E6 cells, 2 days at 37° C., neutral red uptake, read-out: Vero CC50.

As for `Cc1ccc(OCCN(C)C)cc1C(=O)N[C@H](C)c1cc(-c2ccc3c(c2)OC(F)(F)O3)nc2ccccc12` [Example 56, (R)—N-(1-(2-(2,2-difluorobenzo[d][1,3]dioxol-5-yl)quinolin-4-yl)ethyl)-5-(2-(dimethylamino)ethoxy)-2-methylbenzamid], at SARS-CoV-2 PLpro (setting [2]), the IC50 was below 0.5 µM. Also, the CC50 at 2 days in data set [1] (setting [3]) was 15.2 ± 7.09 µM. On to `CCn1ccc(-c2cc([C@@H](C)NC(=O)c3cc(N4CC5CCC(C4)N5C)ccc3C)c3ccccc3n2)n1` [Example 106, N—((R)-1-(2-(1-ethyl-1H-pyrazol-3-yl)quinolin-4-yl)ethyl)-2-methyl-5-(8-methyl-3,8-diazabicyclo[3.2.1]octan-3-yl)benzamide], for which the IC50 against SARS-CoV-2 PLpro was below 0.5 µM. In data set [1], the midpoint of cytotoxicity, the CC50 at 2 days, lay at 31.3 ± 7.45 µM. Turning to `Cc1ccc(N2CC[C@@H](N(C)C)C2)cc1C(=O)N[C@H](C)c1cc(-c2cnn(C)c2)nc2ccccc12` [Example 96, 5-((R)-3-(dimethylamino)pyrrolidin-1-yl)-2-methyl-N—((R)-1-(2-(1-methyl-1H-pyrazol-4-yl)quinolin-4-yl)ethyl)benzamide], the IC50 at SARS-CoV-2 PLpro (setting [2]) is below 0.5 µM. In addition, in data set [1] (setting [3]), the CC50 at 2 days came to 28.8 µM. The like results for `Cc1ccc(OCCN(C)C)cc1C(=O)N[C@H](C)c1cc(-c2cnn(CCC#N)c2)nc2ccccc12` [Example 59, (R)—N-(1-(2-(1-(2-cyanoethyl)-1H-pyrazol-4-yl)quinolin-4-yl)ethyl)-5-(2-(dimethylamino)ethoxy)-2-methylbenzamide] were, in that order, above 5 µM and 101 ± 15.2 µM. `Cc1ccc(N2C[C@H]3CN(C)C[C@H]3C2)cc1C(=O)N[C@H](C)c1cc(-c2cnn(C)c2)nc2ccccc12` [Example 81, 2-methyl-N—((R)-1-(2-(1-methyl-1H-pyrazol-4-yl)quinolin-4-yl)ethyl)-5-((3aR,6aS)-5-methylhexahydropyrrolo[3,4-c]pyrrol-2(1H)-yl)benzamide]: the half-maximal inhibitory concentration (IC50) on SARS-CoV-2 PLpro (setting [2]) was below 0.5 µM. Take `Cc1ccc(N2C[C@H]3CN(C)C[C@H]3C2)cc1C(=O)NC1(c2cc(-c3cnn(C)c3)nc3ccccc23)CC1` [Example 113, 2-methyl-N-(1-(2-(1-methyl-1H-pyrazol-4-yl)quinolin-4-yl)cyclopropyl)-5-((3aR,6aS)-5-methylhexahydropyrrolo[3,4-c]pyrrol-2(1H)-yl)benzamide]: the CC50 at 2 days in data set [1] (setting [3]) turned out to be 56.1 µM. With `Cc1ccc(OCCN(C)C)cc1C(=O)N[C@H](C)c1cc(-n2cncn2)nc2ccccc12` [Example 47, (R)—N-(1-(2-(1H-1,2,4-triazol-1-yl)quinoline 4-yl)ethyl)-5-(2-(dimethylamino)ethoxy)-2-methylbenzamide], the IC50 on SARS-CoV-2 PLpro (setting [2]) was 0.5 to 1 µM. Further, the CC50 at 2 days in data set [1] (setting [3]) was 17.5 ± 5.23 µM. Take `Cc1ccc(N2CCN(C)C3(CC3)C2)cc1C(=O)N[C@H](C)c1cc(-c2ccn(C)n2)nc2ccccc12` [Example 101, (R)-2-methyl-N-(1-(2-(1-methyl-1H-pyrazol-3-yl)quinolin-4-yl)ethyl)-5-(4-methyl-4,7-diazaspiro[2.5]octan-7-yl)benzamide]: the IC50 on SARS-CoV-2 PLpro (setting [2]) was 0.5 to 1 µM. Further, in data set [1] (setting [3]), the CC50 at 2 days is 40.8 ± 4.27 µM. Consider `Cc1ccc(OCCN(C)C)cc1C(=O)N[C@H](C)c1cc(-c2cnc3[nH]ncc3c2)nc2ccccc12` [Example 49, (R)—N-(1-(2-(1H-pyrazolo[3,4-b]pyridin-5-yl)quinolin-4-yl)-ethyl)-5-(2-(dimethylamino)-ethoxy)-2-methylbenzamide], for which the CC50 at 2 days in data set [1] (setting [3]) is above 250 µM. `COc1ncc(-c2cc([C@@H](C)NC(=O)c3cc(OCCN(C)C)ccc3C)c3ccccc3n2)cn1` [Example 62, (R)-5-(2-(dimethylamino)ethoxy)-N-(1-(2-(2-methoxy-pyrimidin-5-yl)quinolin-4-yl)ethyl)-2-methylbenzamide]: the IC50 at SARS-CoV-2 PLpro (setting [2]) is above 5 µM. The same measure, in the same setting: in the case of `Cc1ccc(OC[C@@H]2CCN2C)cc1C(=O)N[C@H](C)c1cc(-c2cnn(C)c2)nc2ccccc12` [Example 75, 2-methyl-N—((R)-1-(2-(1-methyl-1H-pyrazol-4-yl)quinolin-4-yl)ethyl)-5-(((S)-1-methylazetidin-2-yl)methoxy)benzamide] it was below 0.5 µM; in that of `Cc1ccc(OCCN(C)C)cc1C(=O)N[C@H](C)c1cc(-c2ccc(CN3CCOCC3)o2)nc2ccccc12` [Example 72, (R)-5-(2-(dimethylamino)ethoxy)-2-methyl-N-(1-(2-(5-(morpholinomethyl)furan-2-yl)quinolin-4-yl)ethyl)benzamide], below 0.5 µM. On the same count and under the same terms, in the case of `Cc1ccc(OCCN(C)C)cc1C(=O)N[C@H](C)c1cc(-n2ccnc2)nc2ccccc12` [Example 46, (R)—N-(1-(2-(1H-imidazol-1-yl)quinolin-4-yl)ethyl)-5-(2-(dimethylamino)ethoxy)-2-methylbenzamide] it was below 0.5 µM. `CCn1ccc(-c2cc([C@@H](C)NC(=O)c3cc(OC[C@@H]4CCCN4C)ccc3C)c3ccccc3n2)n1` [Example 109, N—((R)-1-(2-(1-ethyl-1H-pyrazol-3-yl)quinolin-4-yl)ethyl)-2-methyl-5-(((S)-1-methylpyrrolidin-2-yl)methoxy)benzamide]: the CC50 at 2 days in data set [1] (setting [3]) amounted to 27 ± 1.66 µM.

As to `Cc1ccc(N2CCN(C)CC2)cc1C(=O)NC1(c2cc(-c3cnn(C)c3)nc3ccccc23)CC1` [Example 111, 2-methyl-N-(1-(2-(1-methyl-1H-pyrazol-4-yl)quinolin-4-yl)cyclopropyl)-5-(4-methylpiperazin-1-yl)benzamide], in data set [1] (setting [3]), the CC50 at 2 days was above 150 µM. Take `Cc1ccc(OCCN(C)C)cc1C(=O)N[C@@H](C)c1cc(-c2ccco2)nc2ccccc12` [Example 17, (S)-5-(2-(dimethylamino)ethoxy)-N-(1-(2-(furan-2-yl)quinolin-4-yl)ethyl)-2-methylbenzamide]: the IC50 at SARS-CoV-2 PLpro (setting [2]) was below 0.5 µM.

With `Cc1ccc(OCCN(C)C)cc1C(=O)N[C@H](C)c1cc(-c2cn[nH]c2)nc2ccccc12` [Example 23, (R)—N-(1-(2-(1H-pyrazol-4-yl)quinolin-4-yl)ethyl)-5-(2-(dimethylamino)ethoxy)-2-methylbenzamide], on SARS-CoV-2 PLpro (setting [2]), the IC50 is below 0.5 µM. Same read-out and setting: in the case of `Cc1ccc(OC[C@H]2CCCN2C)cc1C(=O)N[C@H](C)c1cc(-c2cnn(C)c2)nc2ccccc12` [Example 83, 2-methyl-N—((R)-1-(2-(1-methyl-1H-pyrazol-4-yl)quinolin-4-yl)ethyl)-5-(((R)-1-methylpyrrolidin-2-yl)methoxy)benzamide] it was below 0.5 µM. With `Cc1ccc(OCCN(C)C)cc1C(=O)N[C@H](C)c1cc(-c2cnn(C)c2)nc2ccccc12` [Example 7, (R)-5-(2-(dimethylamino)ethoxy)-2-methyl-N-(1-(2-(1-methyl-1H-pyrazol-4-yl)quinolin-4-yl)ethyl)benzamide], the IC50 at SARS-CoV-2 PLpro (setting [2]) was below 0.5 µM. Same read-out and setting: for `Cc1ccc(N2CCN(C)[C@H](C)C2)cc1C(=O)N[C@H](C)c1cc(-c2cnn(C)c2)nc2ccccc12` [Example 79, 5-((R)-3,4-dimethylpiperazin-1-yl)-2-methyl-N—((R)-1-(2-(1-methyl-1H-pyrazol-4-yl)quinolin-4-yl)ethyl)benzamide] the value was below 0.5 µM. The same measure, in the same setting: for `CCn1ccc(-c2cc([C@@H](C)NC(=O)c3cc(OC[C@@H]4CCN4C)ccc3C)c3ccccc3n2)n1` [Example 105, N—((R)-1-(2-(1-ethyl-1H-pyrazol-3-yl)quinolin-4-yl)ethyl)-2-methyl-5-(((S)-1-methyl-azetidin-2-yl)methoxy)benzamide] the value was below 0.5 µM.
